The results in this text go back to US20060014738A1, “Fungicidal combination of active substances” (priority 2002, published 2006).

For the experiment, the system named is Pyrenophora teres. The experiment can be described thus: Pyrenophora teres test (barley)/curative. Type of experiment: in vivo. As to conditions: curative, application rate of active compound 100 g/ha, evaluation 7 days after inoculation, 0% = control, 100% = no infection. On the procedure:
Pyrenophora teres Test (Barley)/Curative [table] To produce a suitable preparation of active compound, 1 part by weight of active compound or active compound combination is mixed with the stated amount of solvent and emulsifier, and the concentrate is diluted with water to the desired concentration. To test for curative activity, young plants are sprayed with a conidia suspension of Pyrenophora teres. The plants remain in an incubation cabin at 20° C. and 100% relative atmospheric humidity for 48 hours. The plants are then sprayed with the preparation of active compound at the stated application rate. The plants are placed in a greenhouse at a temperature of about 20° C. and a relative atmospheric humidity of about 80%. Evaluation is carried out 7 days after the inoculation. 0% means an efficacy which corresponds to that of the control, whereas an efficacy of 100% means that no infection is observed.
For `CON=C(C(=O)OC)c1ccccc1CO/N=C(\C)c1cccc(C(F)(F)F)c1` [(I), 2-[α-{[(α-methyl-3-trifluoromethylbenzyl)imino]oxy}-o-tolyl]glyoxylic acid methyl ester O-methyl oxime], the Efficacy in % was found to be 56%.

Consider `OC(Cc1ccccc1Cl)(Cn1nc[nH]c1=S)C1(Cl)CC1` (stereo not drawn) [(II), 2-[2-(1-chlorocyclopropyl)-3-(2-chlorophenyl)-2-hydroxypropyl]-2,4 dihydro[1,2,4]triazole-3-thione], for which the Efficacy in % was 56%.

For the compound `CON=C(C1=NOCCO1)c1ccccc1Oc1ncnc(Oc2ccccc2Cl)c1F` [(III), 3-[1-[2-(4-<2-chlorophenoxy>-5-fluoropyrimid-6-yloxy)phenyl]-1-(methox-imino)methyl]-5,6-dihydro-1,4,2-dioxazine], the Efficacy in % was 67%.
